Read-outs that look alike come from different tables or passages of the source.
Assays:
Assay type in all cases: biochemical
Kdr = biological target: T1, Kdr (Homo sapiens, UniProt P35968); assay: Z'-Lyte FRET kinase assay (Invitrogen), Kdr; conditions: read-out: IC50, activity toward kinase Kdr
T1 construct: purchased Invitrogen (assay run by Invitrogen)
Excerpt: For example, direct radiometric, indirect FRET or AlphaScreen assays may be used to assess the level of phosphorylation of a substrate in the presence of test compounds in order to determine the inhibitory affect of the compound on the kinase. […] For these assays, compounds of the invention were screened by Invitrogen using Z′-Lyte™ kinase assay.
Briefly, the Invitrogen kinase assay involves use of a specific peptide substrate optimized for each kinase, containing a fluorophore at each end that make up the FRET pair. The peptide sensitivity to proteolytic cleavage depends on phosphorylation of the peptide. Non-phosphorylated peptide is cleaved by a protease while peptide phosphorylated by the kinase is not cleaved. Cleavage of the peptide disrupts the FRET between the donor (coumarin) and acceptor (fluorescein) fluorophores, resulting in an increase in the ratio of donor emission to acceptor emission. The emission ratio of coumarin to fluorescein is used to assess the reaction progress. […] Thus, the assay involves a kinase reaction in the presence of varying concentrations of a given compound, a development reaction with site specific protease, and detection of the fluorescent emission ratio of coumarin and fluorscein. […] Reaction conditions for each kinase are determined to provide optimal reaction times, incubation temperature, kinase and ATP concentrations. Test samples are made up in 1× kinase buffer (50 mM HEPES pH 7.5, 50 mM MgCl2, 5 mM EGTA, 0.05% BRIJ-35) and compound at desired concentration prepared in DMSO such that the final DMSO is 1%. […] All kinase except for MAP2K1 were at 10 μM ATP in the kinase reaction, while MAP2K1 was at 100 μM. Samples are mixed and the kinase reaction is incubated 1 hour at room temperature, after which 5 μl of development solution is added and mixed. After incubation for another 1 hour at room temperature, 5 μl of stop reagent is added to each sample and mixed. The fluorescence signals are measured to determine the emission ratio.

Stk6 = biological target: T2, Stk6 (Homo sapiens, UniProt O14965); assay: Z'-Lyte FRET kinase assay (Invitrogen), Stk6; conditions: read-out: IC50, activity toward kinase Stk6
T2 construct: purchased Invitrogen (Carlsbad, Calif.), screening service
T2 sequence (O14965 1-403): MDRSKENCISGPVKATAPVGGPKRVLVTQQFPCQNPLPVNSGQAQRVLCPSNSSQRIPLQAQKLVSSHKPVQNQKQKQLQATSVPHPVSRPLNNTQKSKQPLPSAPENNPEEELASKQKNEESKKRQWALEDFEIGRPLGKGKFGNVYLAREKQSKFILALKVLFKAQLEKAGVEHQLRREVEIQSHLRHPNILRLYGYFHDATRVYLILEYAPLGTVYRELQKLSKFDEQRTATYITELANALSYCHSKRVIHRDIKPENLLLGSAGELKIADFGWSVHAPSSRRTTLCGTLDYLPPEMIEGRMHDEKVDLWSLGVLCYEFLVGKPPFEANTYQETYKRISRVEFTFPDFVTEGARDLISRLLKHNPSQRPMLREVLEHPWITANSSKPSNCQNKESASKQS

MAP4K4 = MAP4K4 (Homo sapiens, UniProt O95819); assay: AlphaScreen kinase assay, MAP4K4; conditions: read-out: IC50, activity toward kinase MAP4K4
B-Raf = biological target: T3, B-Raf (Homo sapiens, UniProt P15056); assay: AlphaScreen kinase assay, B-Raf; conditions: read-out: IC50, activity toward kinase B-Raf
T3 construct: purchased Upstate Biotechnology

B-Raf V600E = biological target: T4, B-Raf V600E (Homo sapiens, UniProt P15056, V600E); assay: AlphaScreen kinase assay, B-Raf V600E; conditions: read-out: IC50, activity toward kinase B-Raf V600E
T4 construct: P4254. pFastBacBD-CDC37 BRAF D437-K722-X, V600E; His6 with pFastBac HT leader (TEV site) (N); made in house; host or cells: Sf9 (baculovirus; chaperone CDC37 co-expressed)

c-Raf-1 = biological target: T5, c-Raf-1 (Homo sapiens, UniProt P04049); assay: AlphaScreen kinase assay, c-Raf-1; conditions: read-out: IC50, activity toward kinase c-Raf-1
T5 construct: purchased Upstate Biotechnology

Fak = biological target: T6, Fak (Homo sapiens, UniProt Q05397); assay: AlphaScreen kinase assay, Fak; conditions: read-out: IC50, activity toward kinase Fak
T6 construct: P1358.pFastBacHtb FAK S411-Q686-X; His6 with pFastBacHTb leader (TEV site) (N); made in house; host or cells: Sf9 (baculovirus)

FGFR1 = biological target: T7, FGFR1 (Homo sapiens, UniProt P11362, C488A/C584S); assay: AlphaScreen kinase assay, FGFR1
T7 construct: P1351.pET N6 BI-PTP FGFR A458-E765-X C488A, C584S; made in house; host or cells: E. coli (PTP1B co-expressed)

Flt1 = biological target: T8, Flt1 (Homo sapiens, UniProt P17948); assay: AlphaScreen kinase assay, Flt1; conditions: read-out: IC50, activity toward kinase Flt1
T8 construct: P1826.pETN6 BI-PTP FLT1 M799-D1165-X WT; His6 (N); made in house; host or cells: E. coli (PTP1B co-expressed)
T8 sequence (P17948 with tags, fused parts or gaps): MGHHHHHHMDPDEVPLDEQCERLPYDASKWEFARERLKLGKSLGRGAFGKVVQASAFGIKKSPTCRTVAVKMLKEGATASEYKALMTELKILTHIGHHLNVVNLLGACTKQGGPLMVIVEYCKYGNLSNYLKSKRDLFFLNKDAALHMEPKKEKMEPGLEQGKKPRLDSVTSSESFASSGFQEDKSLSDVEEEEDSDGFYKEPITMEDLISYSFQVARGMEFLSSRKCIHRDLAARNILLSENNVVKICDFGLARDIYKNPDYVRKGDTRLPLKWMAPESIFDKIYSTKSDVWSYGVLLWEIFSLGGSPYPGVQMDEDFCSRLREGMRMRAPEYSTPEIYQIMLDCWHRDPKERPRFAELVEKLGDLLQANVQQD

Fms = biological target: T9, Fms (Homo sapiens, UniProt P07333); assay: AlphaScreen kinase assay, Fms; conditions: read-out: IC50, activity toward kinase Fms
T9 construct: purchased Upstate Biotechnology

Jnk1 = biological target: T10, Jnk1 (Homo sapiens, UniProt P45983); assay: AlphaScreen kinase assay, Jnk1; conditions: read-out: IC50, activity toward kinase Jnk1
T10 construct: purchased Upstate Biotechnology

Jnk3 = biological target: T11, Jnk3 (Homo sapiens, UniProt P53779); assay: AlphaScreen kinase assay, Jnk3; conditions: read-out: IC50, activity toward kinase Jnk3
T11 construct: purchased Upstate Biotechnology

Kit = biological target: T12, Kit (Homo sapiens, UniProt P10721); assay: AlphaScreen kinase assay, Kit; conditions: read-out: IC50, activity toward kinase Kit
T12 construct: P1332.N6 BI PTP KIT M552-K948-X COD; His6 (N); made in house; host or cells: E. coli (PTP1B co-expressed)

Src = biological target: T13, Src (Homo sapiens, UniProt P12931); assay: AlphaScreen kinase assay, Src; conditions: read-out: IC50, activity toward kinase Src
T13 construct: P1144. pET-N6 BI-PTP SRC V86-L536-X; made in house

Jnk2 = biological target: T14, Jnk2 (Homo sapiens, UniProt P45984); assay: AlphaScreen kinase assay, Jnk2; conditions: read-out: IC50, activity toward kinase Jnk2
T14 construct: purchased Roche Protein Expression Group (Indianapolis, IN)
Summary of the method: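 Here, phosphorylation of a biotin-tagged peptide was sensed by proximity of streptavidin donor and antibody-bearing acceptor beads. Test compounds covered 8 concentrations by 1:3 serial dilution of 20 mM DMSO stocks.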

Ret = biological target: T15, Ret (Homo sapiens, UniProt P07949); assay: AlphaScreen kinase assay, Ret; conditions: read-out: IC50, activity toward kinase Ret
T15 construct: P1378.pET-SF BI-PTP RET H661-R1012 HIS; made in house
T15 sequence (P07949 with tags, fused parts or gaps): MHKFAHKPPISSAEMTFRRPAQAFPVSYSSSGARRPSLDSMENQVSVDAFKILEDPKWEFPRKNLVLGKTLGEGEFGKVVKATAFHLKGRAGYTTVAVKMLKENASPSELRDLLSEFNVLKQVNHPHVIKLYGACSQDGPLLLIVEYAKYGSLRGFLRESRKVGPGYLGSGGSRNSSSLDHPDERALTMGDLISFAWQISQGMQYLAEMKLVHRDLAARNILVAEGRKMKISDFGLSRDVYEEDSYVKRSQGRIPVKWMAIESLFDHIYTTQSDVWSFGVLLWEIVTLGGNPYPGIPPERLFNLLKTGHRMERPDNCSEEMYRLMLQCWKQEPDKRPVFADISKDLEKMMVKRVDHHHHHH

Pyk2 = biological target: T16, Pyk2 (Homo sapiens, UniProt Q14289); assay: AlphaScreen kinase assay, Pyk2; conditions: read-out: IC50, activity toward kinase Pyk2
T16 construct: purchased Upstate Biotechnology

[1] = read-out: IC50, activity toward kinase FGFR

Measured: IC50

T16 sequence (Q14289 whole entry): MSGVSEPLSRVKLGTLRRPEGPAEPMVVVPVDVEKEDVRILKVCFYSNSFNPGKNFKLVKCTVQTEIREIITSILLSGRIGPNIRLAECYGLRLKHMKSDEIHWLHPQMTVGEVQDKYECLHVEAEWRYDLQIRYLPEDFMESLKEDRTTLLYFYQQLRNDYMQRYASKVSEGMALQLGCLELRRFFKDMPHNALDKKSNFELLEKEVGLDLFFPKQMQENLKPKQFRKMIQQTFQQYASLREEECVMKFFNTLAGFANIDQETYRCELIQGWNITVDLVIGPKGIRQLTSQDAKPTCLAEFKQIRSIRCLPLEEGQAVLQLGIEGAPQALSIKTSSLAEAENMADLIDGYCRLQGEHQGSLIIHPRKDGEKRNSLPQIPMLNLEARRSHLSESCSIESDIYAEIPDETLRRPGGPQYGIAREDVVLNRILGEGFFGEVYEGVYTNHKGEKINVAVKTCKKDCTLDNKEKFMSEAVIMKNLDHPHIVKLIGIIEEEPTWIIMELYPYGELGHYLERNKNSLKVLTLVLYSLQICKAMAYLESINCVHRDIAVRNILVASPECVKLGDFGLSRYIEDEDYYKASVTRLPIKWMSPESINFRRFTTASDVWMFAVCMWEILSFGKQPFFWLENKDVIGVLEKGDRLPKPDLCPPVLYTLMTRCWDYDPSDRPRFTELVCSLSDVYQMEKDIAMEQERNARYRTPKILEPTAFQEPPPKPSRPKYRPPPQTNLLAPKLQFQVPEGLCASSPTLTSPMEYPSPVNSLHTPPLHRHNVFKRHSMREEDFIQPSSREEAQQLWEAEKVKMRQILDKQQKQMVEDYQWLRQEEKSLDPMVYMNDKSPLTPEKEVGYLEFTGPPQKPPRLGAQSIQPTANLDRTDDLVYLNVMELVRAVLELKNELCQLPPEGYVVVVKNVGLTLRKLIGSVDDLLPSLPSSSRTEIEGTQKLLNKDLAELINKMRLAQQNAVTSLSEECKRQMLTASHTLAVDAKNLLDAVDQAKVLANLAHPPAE
T12 sequence (P10721 with tags, fused parts or gaps): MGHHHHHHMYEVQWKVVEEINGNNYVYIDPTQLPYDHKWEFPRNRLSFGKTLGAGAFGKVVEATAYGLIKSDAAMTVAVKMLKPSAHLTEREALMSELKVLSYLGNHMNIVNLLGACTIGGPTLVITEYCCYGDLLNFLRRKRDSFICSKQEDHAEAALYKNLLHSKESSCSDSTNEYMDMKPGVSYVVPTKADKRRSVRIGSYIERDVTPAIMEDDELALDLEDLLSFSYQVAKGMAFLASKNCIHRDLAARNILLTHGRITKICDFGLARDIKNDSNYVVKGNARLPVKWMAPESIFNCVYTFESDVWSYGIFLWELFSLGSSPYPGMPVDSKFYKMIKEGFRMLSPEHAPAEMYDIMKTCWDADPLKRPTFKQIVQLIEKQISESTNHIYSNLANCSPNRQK
T4 sequence (P15056 with tags, fused parts or gaps V600E): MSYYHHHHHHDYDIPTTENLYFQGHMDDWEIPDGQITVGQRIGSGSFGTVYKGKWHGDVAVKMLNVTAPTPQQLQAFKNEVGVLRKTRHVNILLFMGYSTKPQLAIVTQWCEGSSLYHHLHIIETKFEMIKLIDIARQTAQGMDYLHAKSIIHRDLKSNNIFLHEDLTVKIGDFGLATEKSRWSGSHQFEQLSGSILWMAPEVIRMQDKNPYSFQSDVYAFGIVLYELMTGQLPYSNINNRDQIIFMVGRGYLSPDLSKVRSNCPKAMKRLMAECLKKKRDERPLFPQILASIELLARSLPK
Chain of MAP4K4 (O95819 whole entry): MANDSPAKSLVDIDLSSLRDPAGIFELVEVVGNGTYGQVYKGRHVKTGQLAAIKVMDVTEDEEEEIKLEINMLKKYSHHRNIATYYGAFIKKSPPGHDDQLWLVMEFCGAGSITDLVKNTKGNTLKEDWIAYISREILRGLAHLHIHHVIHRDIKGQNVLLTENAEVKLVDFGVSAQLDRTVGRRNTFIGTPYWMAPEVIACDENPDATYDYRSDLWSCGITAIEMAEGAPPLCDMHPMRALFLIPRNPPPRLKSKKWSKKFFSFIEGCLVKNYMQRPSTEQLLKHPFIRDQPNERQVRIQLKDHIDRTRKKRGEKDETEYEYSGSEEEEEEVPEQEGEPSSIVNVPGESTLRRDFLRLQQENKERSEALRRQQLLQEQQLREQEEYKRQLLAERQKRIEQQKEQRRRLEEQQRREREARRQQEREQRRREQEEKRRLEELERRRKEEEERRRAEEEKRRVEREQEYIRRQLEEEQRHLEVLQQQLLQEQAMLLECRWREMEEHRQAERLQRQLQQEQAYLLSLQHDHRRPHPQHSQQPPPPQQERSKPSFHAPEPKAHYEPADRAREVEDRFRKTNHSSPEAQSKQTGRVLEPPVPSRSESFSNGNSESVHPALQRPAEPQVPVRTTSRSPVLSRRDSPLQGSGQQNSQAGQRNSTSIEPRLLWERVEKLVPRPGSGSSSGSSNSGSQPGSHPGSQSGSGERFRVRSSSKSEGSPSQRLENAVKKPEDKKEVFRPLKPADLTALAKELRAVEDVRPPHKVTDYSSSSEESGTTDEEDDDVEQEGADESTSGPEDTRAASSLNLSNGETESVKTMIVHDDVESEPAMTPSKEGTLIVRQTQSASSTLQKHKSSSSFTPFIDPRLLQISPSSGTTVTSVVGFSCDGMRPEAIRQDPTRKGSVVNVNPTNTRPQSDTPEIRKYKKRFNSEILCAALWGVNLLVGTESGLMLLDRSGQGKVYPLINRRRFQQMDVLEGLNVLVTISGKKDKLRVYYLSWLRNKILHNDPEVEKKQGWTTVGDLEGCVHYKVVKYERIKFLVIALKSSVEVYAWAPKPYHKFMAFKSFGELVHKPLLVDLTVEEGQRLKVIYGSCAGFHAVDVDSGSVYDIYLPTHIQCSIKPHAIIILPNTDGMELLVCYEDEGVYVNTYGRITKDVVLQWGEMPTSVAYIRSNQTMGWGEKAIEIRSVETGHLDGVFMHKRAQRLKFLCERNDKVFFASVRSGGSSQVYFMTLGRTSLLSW
T6 sequence (Q05397 411-686): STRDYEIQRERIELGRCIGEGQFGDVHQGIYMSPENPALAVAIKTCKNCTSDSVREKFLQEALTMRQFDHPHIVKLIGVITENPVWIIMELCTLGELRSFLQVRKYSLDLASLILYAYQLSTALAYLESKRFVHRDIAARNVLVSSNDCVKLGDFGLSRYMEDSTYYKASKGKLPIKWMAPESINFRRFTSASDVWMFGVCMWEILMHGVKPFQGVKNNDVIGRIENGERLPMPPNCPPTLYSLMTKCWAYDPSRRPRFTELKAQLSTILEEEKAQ
T3 sequence (P15056 whole entry): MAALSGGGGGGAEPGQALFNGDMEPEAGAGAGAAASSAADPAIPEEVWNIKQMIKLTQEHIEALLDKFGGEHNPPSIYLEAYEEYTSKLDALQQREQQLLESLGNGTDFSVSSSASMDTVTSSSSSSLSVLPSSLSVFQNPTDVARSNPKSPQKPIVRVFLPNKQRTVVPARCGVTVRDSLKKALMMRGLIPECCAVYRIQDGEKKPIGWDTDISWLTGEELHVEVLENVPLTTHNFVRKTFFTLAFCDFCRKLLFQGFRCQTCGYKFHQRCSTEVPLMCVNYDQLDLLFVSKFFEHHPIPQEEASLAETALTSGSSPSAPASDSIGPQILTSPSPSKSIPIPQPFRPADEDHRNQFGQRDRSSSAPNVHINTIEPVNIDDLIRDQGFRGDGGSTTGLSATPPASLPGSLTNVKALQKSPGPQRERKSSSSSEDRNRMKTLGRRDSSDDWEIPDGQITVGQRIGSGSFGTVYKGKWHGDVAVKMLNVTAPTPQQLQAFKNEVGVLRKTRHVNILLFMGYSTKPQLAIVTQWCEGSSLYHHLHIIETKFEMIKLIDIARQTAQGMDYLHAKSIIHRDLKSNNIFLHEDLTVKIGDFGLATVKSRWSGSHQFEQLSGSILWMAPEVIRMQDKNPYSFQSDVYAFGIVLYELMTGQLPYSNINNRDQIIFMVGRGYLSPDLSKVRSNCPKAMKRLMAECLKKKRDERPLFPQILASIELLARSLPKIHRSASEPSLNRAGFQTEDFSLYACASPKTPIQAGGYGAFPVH
T11 sequence (P53779 whole entry): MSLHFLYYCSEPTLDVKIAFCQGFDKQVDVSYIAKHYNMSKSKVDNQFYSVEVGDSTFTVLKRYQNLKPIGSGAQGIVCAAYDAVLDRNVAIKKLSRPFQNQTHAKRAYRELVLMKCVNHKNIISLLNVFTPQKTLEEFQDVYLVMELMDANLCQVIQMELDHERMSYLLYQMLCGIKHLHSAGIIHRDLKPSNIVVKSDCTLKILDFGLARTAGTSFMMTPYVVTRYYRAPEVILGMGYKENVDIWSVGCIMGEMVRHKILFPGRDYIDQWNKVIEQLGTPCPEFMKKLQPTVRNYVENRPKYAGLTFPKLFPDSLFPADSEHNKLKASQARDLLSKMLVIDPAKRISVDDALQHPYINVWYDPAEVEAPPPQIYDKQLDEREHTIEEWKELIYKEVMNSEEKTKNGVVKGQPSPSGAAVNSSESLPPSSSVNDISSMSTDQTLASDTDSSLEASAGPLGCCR
T7 sequence (P11362 458-765 C488A/C584S): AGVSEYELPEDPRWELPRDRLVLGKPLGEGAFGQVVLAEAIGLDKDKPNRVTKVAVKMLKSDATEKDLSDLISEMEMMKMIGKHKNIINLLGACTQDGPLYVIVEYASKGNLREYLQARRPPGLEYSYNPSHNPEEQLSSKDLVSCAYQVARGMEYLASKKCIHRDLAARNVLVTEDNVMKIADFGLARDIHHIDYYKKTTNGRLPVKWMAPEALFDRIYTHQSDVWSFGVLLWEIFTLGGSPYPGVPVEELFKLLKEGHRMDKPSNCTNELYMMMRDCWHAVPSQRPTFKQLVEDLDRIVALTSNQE

c1cnc2[nH]cc(Sc3ccncc3)c2c1 [Compound P-0131]
≤ 10 µM: Kdr | Stk6 | MAP4K4

CCC(C)NC(=O)Nc1ccc(F)c(C(=O)c2c[nH]c3ncc(-c4cccnc4)cc23)c1F (stereo not shown) [Compound P-1289, 1-sec-Butyl-3-[2,4-difluoro-3-(5-pyridin-3-yl-1H-pyrrolo[2,3-b]pyridine-3-carbonyl)-phenyl]-urea]
≤ 10 µM: B-Raf | B-Raf V600E | c-Raf-1 | Fak | FGFR1; [1] | Flt1 | Fms | Jnk1 | Jnk3 | Kit | Src | MAP4K4

c1cncc(-c2cnc3[nH]ccc3c2)c1 [Compound P-0176]
≤ 10 µM: Jnk3 | Kdr | Kit | Stk6 | MAP4K4

c1ccc(Sc2c[nH]c3ncccc23)nc1 [Compound P-0214]
≤ 10 µM: Flt1 | Stk6 | MAP4K4

Cc1[nH]c2ncccc2c1-c1cccc(F)c1 [Compound P-0986]
≤ 10 µM: Fak | MAP4K4

COc1cc(Cc2c[nH]c3ncccc23)cc(OC)c1 [Compound P-0391]
≤ 10 µM: Fak | FGFR1; [1] | Fms | Kdr | Kit | MAP4K4

COc1cc(OC)cc(C(=O)c2c[nH]c3ncc(-c4cccnc4)cc23)c1 [Compound P-1411, (3,5-Dimethoxy-phenyl)-(5-pyridin-3-yl-1H-pyrrolo[2,3-b]pyridin-3-yl)-methanone]
≤ 10 µM: B-Raf V600E | Fak | FGFR1; [1] | Flt1 | Fms | Kit | MAP4K4

CS(=O)(=O)Nc1ccc(Cl)c(C(=O)c2c[nH]c3ncc(-c4cccnc4)cc23)c1F [Compound P-0734, N-[4-Chloro-2-fluoro-3-(5-pyridin-3-yl-1H-pyrrolo[2,3-b]pyridine-3-carbonyl)-phenyl]-methanesulfonamide]
≤ 10 µM: B-Raf | B-Raf V600E | c-Raf-1 | FGFR1; [1] | Jnk1 | Jnk2 | Jnk3 | Ret | MAP4K4

CCCS(=O)(=O)Nc1ccc(F)c(C(=O)c2c[nH]c3ncc(OCCOC)cc23)c1F [Compound P-1253, Propane-1-sulfonic acid {2,4-difluoro-3-[5-(2-methoxy-ethoxy)-1H-pyrrolo[2,3-b]pyridine-3-carbonyl]-phenyl}-amide]
≤ 10 µM: B-Raf | B-Raf V600E | c-Raf-1 | Fak | FGFR1; [1] | Fms | Jnk1 | Jnk2 | Jnk3 | Kit | Src | MAP4K4

NC(=O)c1cccc(-c2cnc3[nH]cc(C(=O)c4ccccc4OCc4ccccc4)c3c2)c1 [Compound P-1383]
≤ 10 µM: B-Raf | B-Raf V600E | Fak | FGFR1; [1] | Flt1 | Kit | Src | MAP4K4

Clc1ncccc1Cc1c[nH]c2ncccc12 [Compound P-0317]
≤ 10 µM: Fms | Stk6 | MAP4K4

CCCC(=O)Nc1ccc(F)c(C(=O)c2c[nH]c3ncc(-c4cccnc4)cc23)c1F [Compound P-1279]
≤ 10 µM: B-Raf | B-Raf V600E | c-Raf-1 | Fak | FGFR1; [1] | Flt1 | Fms | Jnk1 | Jnk3 | Kit | MAP4K4

CC(C)S(=O)(=O)Nc1ccc(F)c(Cc2c[nH]c3ncc(-c4cccnc4)cc23)c1F [Compound P-0851]
≤ 10 µM: B-Raf | B-Raf V600E | c-Raf-1 | Fak | FGFR1; [1] | Fms | Jnk1 | Jnk3 | Kit | Pyk2 | Src | MAP4K4

COc1cccc(Cc2c[nH]c3ncc(-c4ccsc4)cc23)n1 [Compound P-0300]
≤ 10 µM: Jnk3 | Kit | Stk6 | MAP4K4

CCCS(=O)(=O)Nc1ccc(Cl)c(C(=O)c2c[nH]c3ncc(-c4cccnc4)cc23)c1F [Compound P-0753, Propane-1-sulfonic acid [4-chloro-2-fluoro-3-(5-pyridin-3-yl-1H-pyrrolo[2,3-b]pyridine-3-carbonyl)-phenyl]-amide]
≤ 10 µM: c-Raf-1 | FGFR1 | Fms | Jnk1 | Jnk3 | Kit | Pyk2 | Src | MAP4K4

OCCOc1cccc(Cc2c[nH]c3ncc(-c4ccsc4)cc23)c1 [Compound P-0287]
≤ 10 µM: B-Raf V600E | FGFR1; [1] | Flt1 | Fms | Kdr | Kit | Pyk2 | Stk6 | MAP4K4

COc1ccc(-c2cnc3[nH]cc(C#Cc4cccc(C(=O)O)c4)c3c2)cc1OC [Compound P-0174]
≤ 10 µM: B-Raf V600E | Kdr | Stk6 | MAP4K4

O=C(c1c(F)cccc1F)c1c[nH]c2ncccc12 [Compound P-1685]
≤ 10 µM: Fak | FGFR1; [1] | Fms | Kit | MAP4K4

Reference: patent US8415469B2, “Compounds and methods for kinase modulation, and indications therefor” (Plexxikon Inc., priority 2005, dated 2013)
